Test results taken from patent US12441689B2 (EpiVario, Inc., priority 2019, dated 2025).

Molecular target: human ACSS2 protein (Homo sapiens (Human), UniProt Q9NR19)
Test: ACSS2 Cell-Free Activity Assay (Cell-Free IC50)
Details: 10 nM human ACSS2 protein, 90 minutes at 37 C, pyrophosphatase-coupled, Biomol Green absorbance at 620 nm; read-out: ACSS2 Biochemical IC50
Excerpt: ACSS2 Cell-Free Activity Assay (Cell-Free IC50)

Sequence of human ACSS2 protein (Q9NR19 whole entry): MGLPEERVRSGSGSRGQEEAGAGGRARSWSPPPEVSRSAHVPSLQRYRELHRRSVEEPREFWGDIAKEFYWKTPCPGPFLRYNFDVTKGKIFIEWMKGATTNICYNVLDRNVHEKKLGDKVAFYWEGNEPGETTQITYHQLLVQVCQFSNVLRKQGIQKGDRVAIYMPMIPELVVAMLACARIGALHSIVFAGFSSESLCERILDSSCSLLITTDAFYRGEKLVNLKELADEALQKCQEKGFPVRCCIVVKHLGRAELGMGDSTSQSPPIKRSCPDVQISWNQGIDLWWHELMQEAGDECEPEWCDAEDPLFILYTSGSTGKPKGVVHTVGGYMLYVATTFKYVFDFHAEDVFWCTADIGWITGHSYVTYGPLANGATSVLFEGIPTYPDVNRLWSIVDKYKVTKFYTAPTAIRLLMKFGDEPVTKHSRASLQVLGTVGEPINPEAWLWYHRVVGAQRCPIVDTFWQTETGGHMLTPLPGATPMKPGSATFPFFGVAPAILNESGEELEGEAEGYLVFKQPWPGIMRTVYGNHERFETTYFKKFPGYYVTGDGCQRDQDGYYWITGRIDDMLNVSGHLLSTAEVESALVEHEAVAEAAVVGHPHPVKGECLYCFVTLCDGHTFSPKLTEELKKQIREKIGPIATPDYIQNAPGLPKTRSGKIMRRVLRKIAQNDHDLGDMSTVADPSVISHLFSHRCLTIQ

| SMILES | IC50 [nM] |
| --- | --- |
| Cc1ncc(-c2ccc(OC(F)F)cc2)nc1C(=O)Nc1cccc(C(C)(F)F)c1 [Compound 126, N-(3-(1,1-difluoroethyl)phenyl)-6-(4-(difluoromethoxy)phenyl)-3-methylpyrazine-2-carboxamide] | > 100 |
| Cc1nn(-c2ccc(OC(F)F)c(-c3ccccc3)c2)c(C)c1C(=O)Nc1cccc(C(C)(F)F)c1 [Compound 178] | 1 to 100 |
| CC1=NN(c2ccc(OC(F)F)cc2)C(=O)C1(Cl)C(=O)Nc1cccc(C(C)(F)F)c1 (stereo not shown) [Compound 172, 4-chloro-N-(3-(1,1-difluoroethyl)phenyl)-1-(4-(difluoromethoxy)phenyl)-3-methyl-5-oxo-4,5-dihydro-1H-pyrazole-4-carboxamide] | 1 to 100 |
| CC1=NN(c2ccc(OC(C)C)cc2)C(=O)C1(F)C(=O)Nc1cccc(C(C)(F)F)c1 (stereo not shown) [Compound 208, N-(3-(1,1-difluoroethyl)phenyl)-4-fluoro-1-(4-isopropoxyphenyl)-3-methyl-5-oxo-4,5-dihydro-1H-pyrazole-4-carboxamide] | < 1 |
| CCOc1c(C(=O)Nc2cccc(C(C)(F)F)c2)c(C)nn1-c1ccc(OC(F)F)cc1 [Compound 201, N-(3-(1,1-difluoroethyl)phenyl)-1-(4-(difluoromethoxy)phenyl)-5-ethoxy-3-methyl-1H-pyrazole-4-carboxamide] | > 100 |
| Cc1nc(-c2ccc(OC(F)F)c(-c3ccccc3)c2)ncc1C(=O)Nc1cccc(C(C)(F)F)c1 [Compound 139, N-[3-(1,1-difluoroethyl)phenyl]-2-[4-(difluoromethoxy)-3-phenyl-phenyl]-4-methyl-pyrimidine-5-carboxamide] | > 100 |

Next, values leading:

| IC50 [nM] | SMILES |
| --- | --- |
| > 100 | CCC(F)(F)c1cccc(NC(=O)c2nc(-c3ccc(OC(F)F)cn3)[nH]c2C)c1 [Compound 227, 2-(5-(difluoromethoxy)pyridin-2-yl)-N-(3-(1,1-difluoropropyl)phenyl)-5-methyl-1H-imidazole-4-carboxamide] |
| > 100 | CCC(F)(F)c1cccc(NC(=O)c2nc(-c3ccc(OC(F)F)c(-c4ccccc4)n3)[nH]c2C)c1 [Compound 260, 2-(5-(difluoromethoxy)-6-phenylpyridin-2-yl)-N-(3-(1,1-difluoropropyl)phenyl)-5-methyl-1 H-imidazole-4-carboxamide] |
| > 100 | CC1=NN(c2ccc(OC(F)F)cc2)C(=O)C1(C)C(=O)Nc1cccc(Cl)c1 (stereo not shown) [Compound 167, N-(3-chlorophenyl)-1-[4-(difluoromethoxy)phenyl]-3,4-dimethyl-5-oxo-pyrazole-4-carboxamide] |
| > 100 | CCC(F)(F)c1cccc(NC(=O)c2cc(C)nc(-c3ccc(OC(F)F)cc3)c2)c1 [Compound 102, 2-[4-(difluoromethoxy)phenyl]-N-[3-(1,1-difluoropropyl)phenyl]-6-methyl-pyridine-4-carboxamide] |
